Measurements published in patent US10487086.

Settings: from C=CCCC(=O)Nc1cc(NC(=O)OC)ccc1-c1nnc(Cl)cc1C(CC=C)NC(=O)OC(C)(C)C; rcm bond; 12-membered ring; Grubbs II (0.3 eq); DCM; 6.6 mM; 40.0 °C; 1.0 h

COC(=O)Nc1ccc2c(c1)NC(=O)CCC=CCC(NC(=O)OC(C)(C)C)c1cc(Cl)nnc1-2 (stereo not shown)
ring closure, isolated yield: 56%
